Measured values taken from patent US11083717B2, “Compositions and methods for drug sensitization of parasites” (The Texas A&M University System, priority 2015, dated 2021).
Where two headings read alike, the source gives them in different places.

Assays:
human fibroblast = assay: in vitro
Excerpt: (§1) These tests included an IL-12 mouse model test to determine compound efficacy, verification of MIC50 for CP, cytotoxicity test for fibroblasts and yeast to determine potential toxic effects, a Human ether-a-go-go-related gene (hERG) test to determine potential cardiotoxicity, an AMES test tp determine mutagenic potential, a Safety Screen 44 test to determine common negative off-target drug interastion (Eurofins Cerep, SA, France), a cytochrome P450 (CYP) test to determine potential liver toxicity, a maximum tolerated dose, test, a Pharmacokinetics (PK) test to determine fate of the substance administered to a living organism tests for plasma stability in human and mouse, to measure the degradation of compound in plasma MClint and HClint test to determine in vitro intrinsic clearance for Mouse and Human, and kinetic solubility and plasma protein binding tests in mouse and human.

S. cerevisiae = assay: in vitro; conditions: Saccharomyces cerevisiae
Excerpt: as §1

| Structure (SMILES) | concentrations at which not toxic, human fibroblast cytotoxicity testing (human fibroblast; human) [µM] | concentrations at which not toxic, S. cerevisiae cytotoxicity testing (S. cerevisiae) [µM] | concentrations at which not toxic, human fibroblast cytotoxicity testing (human fibroblast) [µM] |
| --- | --- | --- | --- |
| COc1ccc2nc(Oc3ccc(C(C)C(=O)O)cc3)sc2c1 (stereo not drawn) [NZ-334] | ≥ 100 | ≥ 100 |  |
| O=C(O)Cc1ccc(Oc2nc3cc(F)c(F)cc3s2)cc1 [NZ-399, 2-{4-[(5,6-difluoro-1,3-benzothiazol-2-yl)oxy]phenyl}acetic acid] |  | ≥ 100 | ≥ 100 |
| COC(=O)C(C)(C)Oc1ccc(Oc2nc3ccc(Cl)cc3s2)cc1 [NZ-317, methyl 2-{4-[(6-chloro-1,3-benzothiazol-2-yl)oxy]phenoxy}-2-methylpropanoate] | ≥ 100 | ≥ 100 |  |
| CNC(=O)Cc1ccc(O)cc1Oc1nc2ccc(Cl)cc2s1 [NZ-390, 2-{2-[(6-chloro-1,3-benzothiazol-2-yl)oxy]-4-hydroxyphenyl}-N-methylacetamide] | ≥ 100 | ≥ 100 |  |
| CC(C)NC(=O)Nc1ccc(Oc2nc3ccc(CO)cc3s2)cc1 [NZ-381, 1-(4-{[6-(hydroxymethyl)-1,3-benzothiazol-2-yl]oxy}phenyl)-3-(propan-2-yl)urea] | ≥ 100 | ≥ 100 |  |
| CC(C)NC(=O)Cc1ccc(O)cc1Oc1nc2ccc(F)cc2s1 [NZ-406, 2-{2-[(6-fluoro-1,3-benzothiazol-2-yl)oxy]-4-hydroxyphenyl}-N-(propan-2-yl)acetamide] | ≥ 100 | ≥ 100 |  |
| CC(C(=O)N1CCN(CC(F)(F)F)CC1)c1ccc(Oc2nc3ccc(Cl)cc3s2)cc1 (stereo not drawn) [NZ-512] | ≥ 100 | ≥ 100 |  |
| CNC(=O)Cc1ccc(Oc2nc3ccc(F)cc3s2)cc1 [NZ-385, 2-{4-[(6-fluoro-1,3-benzothiazol-2-yl)oxy]phenyl}-N-methylacetamide] |  | ≥ 100 | ≥ 100 |
| NCc1ccc(Oc2nc3ccc(Cl)cc3s2)cc1 [NZ-348, {4-[(6-chloro-1,3-benzothiazol-2-yl)oxy]phenyl}methanamine] |  | 25 to 50 |  |
| CNC(=O)C(C)c1ccc(Oc2nc3cc(Cl)c(Cl)cc3s2)cc1 (stereo not drawn) [NZ-394, 2-{4-[(5,6-dichloro-1,3-benzothiazol-2-yl)oxy]phenyl}-N-methylpropanamide] | ≥ 100 | ≥ 100 |  |
| CNC(=O)Cc1ccc(Oc2nc3ccc(Cl)cc3s2)cc1 [NZ-383] |  | ≥ 100 | ≥ 100 |
| COC(=O)C(OC)c1ccc(Oc2nc3ccc(Cl)cc3s2)cc1 (stereo not drawn) [NZ-355, methyl 2-{4-[(6-chloro-1,3-benzothiazol-2-yl)oxy]phenyl}-2-methoxyacetate] |  | ≥ 100 |  |
| CON(C)C(=O)COc1ccc(Oc2cnc3cc(Cl)ccc3n2)cc1 [NZ-290, 2-{4-[(6-chloroquinoxalin-2-yl)oxy]phenoxy}-N-methoxy-N-methylacetamide] |  | ≥ 100 | ≥ 100 |
| CC(C(=O)N1CCN(C2COC2)CC1)c1ccc(Oc2nc3ccc(Cl)cc3s2)cc1 (stereo not drawn) [NZ-513, 2-{4-[(6-chloro-1,3-benzothiazol-2-yl)oxy]phenyl}-1-[4-(oxetan-3-yl)piperazin-1-yl]propan-1-one] | ≥ 100 | ≥ 100 |  |
| CC(C)NC(=O)Cc1ccc(Oc2nc3cc(F)c(F)cc3s2)cc1O [NZ-407, 2-{4-[(5,6-difluoro-1,3-benzothiazol-2-yl)oxy]-2-hydroxyphenyl}-N-(propan-2-yl)acetamide] | ≥ 100 | ≥ 100 |  |
| CONC(=O)C(O)c1ccc(Oc2nc3ccc(Cl)cc3s2)cc1 (stereo not drawn) [NZ-338, 2-{4-[(6-chloro-1,3-benzothiazol-2-yl)oxy]phenyl}-2-hydroxy-N-methoxyacetamide] | ≥ 100 |  |  |
| NCCC(=O)Nc1ccc(Oc2nc3ccc(F)cc3s2)cc1 [NZ-416, 3-amino-N-{4-[(6-fluoro-1,3-benzothiazol-2-yl)oxy]phenyl}propanamide] | ≥ 100 | ≥ 100 |  |
| CC(C)NC(=O)Nc1ccc(Oc2nc3ccc(S(C)(=O)=O)cc3s2)cc1 [NZ-380, 1-{4-[(6-methanesulfonyl-1,3-benzothiazol-2-yl)oxy]phenyl}-3-(propan-2-yl)urea] | ≥ 100 | ≥ 100 |  |
| CC(C)(C)OC(=O)Nc1ccc(Oc2nc3ccc(F)cc3s2)cc1 [NZ-412, tert-butyl N-{4-[(6-fluoro-1,3-benzothiazol-2-yl)oxy]phenyl}carbamate] | ≥ 100 | ≥ 100 |  |

| Structure (SMILES) | concentrations at which not toxic, human fibroblast cytotoxicity testing (human fibroblast; human) [µM] | concentrations at which not toxic, S. cerevisiae cytotoxicity testing (S. cerevisiae) [µM] | concentrations at which not toxic, human fibroblast cytotoxicity testing (human fibroblast) [µM] |
| --- | --- | --- | --- |
| CC(C)NC(=O)Nc1ccc(Oc2nc3c(F)cccc3s2)cc1 [NZ-374, 1-{4-[(4-fluoro-1,3-benzothiazol-2-yl)oxy]phenyl}-3-(propan-2-yl)urea] | ≥ 100 | ≥ 100 |  |
| CC(C)NC(=O)Nc1ccc(Oc2nc3ccc(Br)cc3s2)cc1 [NZ-359, 1-{4-[(6-bromo-1,3-benzothiazol-2-yl)oxy]phenyl}-3-(propan-2-yl)urea] |  | ≥ 100 |  |
| Cc1ccc2nc(Oc3ccc(NC(=O)NC(C)C)cc3)sc2c1 [NZ-358, 1-{4-[(6-methyl-1,3-benzothiazol-2-yl)oxy]phenyl}-3-(propan-2-yl)urea] |  | ≥ 100 |  |
| COC(C(=O)O)c1ccc(Oc2nc3ccc(Cl)cc3s2)cc1 (stereo not drawn) [NZ-356] |  | ≥ 100 |  |
| CCOC(=O)[C@@H](C)Oc1ccc(Oc2nc3ccc(Cl)cc3o2)cc1 [fenoxaprop-p-ethyl, ethyl (2R)-2-{4-[(6-chloro-1,3-benzoxazol-2-yl)oxy]phenoxy}propanoate, reference compound] | ≥ 100 |  |  |
| CC(C)(C)OC(=O)Nc1ccc(Oc2nc3ccc(Cl)cc3s2)cc1 [NZ-351, tert-butyl N-{4-[(6-chloro-1,3-benzothiazol-2-yl)oxy]phenyl}carbamate] |  | ≥ 100 |  |
| CC(C)NC(=O)Nc1ccc(Oc2cnc3cc(F)ccc3n2)cc1 [NZ-345, 1-{4-[(6-fluoroquinoxalin-2-yl)oxy]phenyl}-3-(propan-2-yl)urea] |  |  | ≥ 100 |
| CNC(=O)Nc1ccc(Oc2nc3ccc(Cl)cc3s2)cc1 [NZ-353, 1-{4-[(6-chloro-1,3-benzothiazol-2-yl)oxy]phenyl}-3-methylurea] |  | ≥ 100 |  |
| COC(=O)COc1ccc(Oc2nc3ccc(F)cc3s2)cc1 [NZ-303, methyl 2-{4-[(6-fluoro-1,3-benzothiazol-2-yl)oxy]phenoxy}acetate] | ≥ 100 |  |  |
| CC(C)NC(=O)Nc1ccc(Oc2ccc3cc(Cl)ccc3n2)cc1 [NZ-346, 1-{4-[(6-chloroquinolin-2-yl)oxy]phenyl}-3-(propan-2-yl)urea] |  |  | ≥ 100 |
| CC(C)NC(=O)Nc1ccc(Oc2nc3ccccc3s2)cc1 [NZ-360, 1-{4-(1,3-benzothiazol-2-yloxy)phenyl]-3-(propan-2-yl)urea] |  | ≥ 100 |  |
| Nc1ccc(Oc2nc3ccc(Cl)cc3s2)cc1 [NZ-352, 4-[(6-chloro-1,3-benzothiazol-2-yl)oxy]aniline] |  | 25 to 50 |  |
| CN(C)C(=O)NCc1ccc(Oc2nc3ccc(Cl)cc3s2)cc1 [NZ-349, 1-({4-[(6-chloro-1,3-benzothiazol-2-yl)oxy]phenyl}methyl)-3,3-dimethylurea] |  | ≥ 100 |  |
| CNC(=O)NCc1ccc(Oc2nc3ccc(Cl)cc3s2)cc1 [NZ-350, 1-({4-[(6-chloro-1,3-benzothiazol-2-yl)oxy]phenyl}methyl)-3-methylurea] |  | ≥ 100 |  |
| CN(C)C(=O)Nc1ccc(Oc2cnc3cc(Cl)ccc3n2)cc1 [NZ-343, 1-{4-[(6-chloroquinoxalin-2-yl)oxy]phenyl}-3,3-dimethylurea] | ≥ 100 |  |  |
| CONC(=O)C(OC)c1ccc(Oc2nc3ccc(Cl)cc3s2)cc1 (stereo not drawn) [NZ-357, 2-{4-[(6-chloro-1,3-benzothiazol-2-yl)oxy]phenyl}-N,2-dimethoxyacetamide] |  | ≥ 100 |  |
| C[C@@H](Oc1ccc(Oc2nc3ccc(Cl)cc3o2)cc1)C(=O)O [fenoxaprop-p, (R)-2-[4-(6-chlorobenzoxazol-2-yloxy)phenoxy]propionic acid, reference compound] |  |  | ≥ 100 |
| CN(C)C(=O)Nc1ccc(Oc2nc3ccc(Cl)cc3s2)cc1 [NZ-354, 1-{4-[(6-chloro-1,3-benzothiazol-2-yl)oxy]phenyl}-3,3-dimethylurea] |  | 50 to 100 |  |
